Data taken from patent US7399754B2, “N2-quinoline or isoquinoline substituted purine derivatives” (priority 2005, dated 2008).
Values after ≈ are worked out from the molar mass of the structure shown.

Tests used:
[1] = test system: Du145 prostate cancer cells; test: Pulse-exposure clonal growth study; type: cell-based
Excerpt: (§1) Pulse-exposure studies, using methods as described in Kubota et al., Cancer Res. 1998; 58: 3370-3375 and Campbell et al., J. Mol. Endocrinol.

[2] = test system: PC-3 prostate cancer cells; test: Pulse-exposure clonal growth study; type: cell-based; settings: PC-3, pulse-exposure
Excerpt: as §1

[3] = test system: LNCap prostate cancer cells; test: Pulse-exposure clonal growth study; type: cell-based
Excerpt: as §1

most cancer types = test: MTT and SRB growth inhibition assays, many cancer types; type: cell-based
Description: (§2) The anti-cancer activities of COMPOUND I were evaluated using the microtetrazoline (MTT) and sulforhodamine B (SRB) assays.

malignant cells = test: Clonal proliferation, cell cycle and apoptosis of malignant cells in vitro; type: cell-based
Excerpt: as §1

human cancer cells = test: Human cancer cells transplanted to nude mice; type: in vivo
Excerpt: The in vivo anti-cancer activities of COMPOUND I were further evaluated using various other human cancer cells transplanted to nude mice.

H-22 liver cancer = test: Subcutaneous H-22 liver cancer growth in mice; type: in vivo; settings: 50 mg/kg daily intralesional, 14 days treatment period
Description: (§3) To determine if Compound I could inhibit primary tumor growth, syngeneic mice (C57B 16/J) bearing subcutaneous Lewis lung carcinomas and H-22 liver cancer were treated with Compound I with daily intralesional injections of (50 mg/kg) 1 mg of Compound I per 20 g mouse body weight.

[4] = test system: Lewis lung carcinoma cells; test: MTT and SRB growth inhibition assays; type: cell-based, murine; settings: Mus musculus
Description: as §2

H-22 liver cancer cells = test: MTT and SRB growth inhibition assays; type: cell-based
Description: as §2

leukemia cells = test: MTT and SRB growth inhibition assays; type: cell-based
Description: as §2

Lewis lung carcinomas = test: Subcutaneous Lewis lung carcinoma growth in mice; type: in vivo; settings: for Tumor vol.: daily intralesional injections 50 mg/kg
Description: as §3
Inhibition of primary tumor growth was first observed at dose of 20 mg/kg/day. Increased doses of Compound I correlated with increased efficacy of tumor inhibition. Inhibition of metastatic growth occurred at doses of approximately 20 mg/kg/day. […] In contrast, tumor in animals treated with saline grew rapidly in size to >6.000 mm^3, leading to the demise of all animals on day 17 after tumor implantation.

Compound: c1cnc2ccc(Nc3nc(NC4CC4)c4nc[nH]c4n3)cc2c1 [Compound I]
- 50% inhibition (ED50) of clonal growth [1]: approximately 18 μg/ml
- 50% inhibition (ED50) of clonal growth [2]: approximately 18 μg/ml
- 50% inhibition (ED50) of clonal growth [3]: approximately 18 μg/ml
- growth in vitro of many types of cancers (most cancer types; MTT and SRB assays): significantly inhibited growth
- IC50 (most cancer types; most cancer types): 500 to 3000 nM
- clonal proliferation of a variety of malignant cells in vitro (malignant cells; prostate and breast cancers, neuroepithelioma, melanoma, leukemia): inhibit the clonal proliferation
- cell cycle arrest and apoptosis (malignant cells; some of these cells): induces cell cycle arrest and apoptosis
- in vivo growth of human cancers (human cancer cells): inhibits in vivo growth of many types of human cancers
- growth of H-22 liver cancer in mice (H-22 liver cancer): primary tumor growth was inhibited
- IC50 [4]: 2.81 µg/mL (≈ 8.85 µM)
- IC50 (H-22 liver cancer cells): 2.24 µg/mL (≈ 7.06 µM)
- IC50 (leukemia cells): 2.5 µg/mL (≈ 7.88 µM)
- Tumor vol. (Lewis lung carcinomas; day 2): 200 mm^3
- Tumor vol. (Lewis lung carcinomas; day 4): 300 mm^3
- Tumor vol. (Lewis lung carcinomas; day 6): 500 mm^3
- Tumor vol. (Lewis lung carcinomas; day 8): 700 mm^3
- Tumor vol. (Lewis lung carcinomas; day 10): 900 mm^3
- Tumor vol. (Lewis lung carcinomas; day 12): 1200 mm^3
- Tumor vol. (Lewis lung carcinomas; day 14): 1500 mm^3
- Tumor vol. (Lewis lung carcinomas; day 16): 1800 mm^3
- Tumor vol. (Lewis lung carcinomas; day 17): 2200 mm^3
- toxicity (Lewis lung carcinomas; treated tumor-bearing mice): no detectable toxicity
- dose at which inhibition of metastatic growth occurred (Lewis lung carcinomas; tumor-bearing mice): approximately 20 mg/kg/day
- dose at which inhibition of primary tumor growth was first observed (Lewis lung carcinomas; tumor-bearing mice): 20 mg/kg/day
